Patent US8916183B2, “Pesticidal compositions and processes related thereto” (priority 2012, dated 2014)

What follows are molecules tested on Beet Armyworm (BAW) (Spodoptera exigua) (assay: Bioassay on beet armyworm (BAW), 128-well diet tray assay). Conditions: Spodoptera exigua; beet armyworm, 50 μg/cm^2; read-out: % Mortality BAW 50 μg/cm^2.
Format: in vivo
Work on `CC(C)Cc1ccccc1N1CCS/C1=N\N=C\c1ccc(-c2ncn(-c3ccc(OC(F)(F)F)cc3)n2)cc1` [Compound 150C] yielded a mortality at 50 µg/cm2 of 50 to 100%.
`CC(C)=Cc1ccccc1N1CCS/C1=N\N=C\c1ccc(-c2ncn(-c3ccc(OC(F)(F)F)cc3)n2)cc1` [Compound 151C] was tested, and the mortality at 50 µg/cm2 was 50 to 100%.
With `Cc1ccccc1N1/C(=N/N=C/c2ccc(-c3ncn(-c4ccc(OC(F)(F)F)cc4)n3)cc2)SCC1C` (stereo not drawn) [Compound 154C] the mortality at 50 µg/cm2 was 50 to 100%.
`CCc1cccc(C)c1N1/C(=N/N=C/c2ccc(-c3ncn(-c4ccc(OC(F)(F)F)cc4)n3)cc2)SCC1C` (stereo not drawn) [Compound 156C] gave a mortality at 50 µg/cm2 of 50 to 100%.
`CC1CS/C(=N\N=C\c2ccc(-c3ncn(-c4ccc(OC(F)(F)F)cc4)n3)cc2)N1c1c(Cl)cccc1Cl` (stereo not drawn) [Compound 157C] gave a mortality at 50 µg/cm2 of 50 to 100%.
With `Cc1cccc(Cl)c1N1/C(=N/N=C/c2ccc(-c3ncn(-c4ccc(OC(F)(F)F)cc4)n3)cc2)SCC1C` (stereo not drawn) [Compound 158C] the mortality at 50 µg/cm2 was 50 to 100%.
For `CC1CS/C(=N\N=C\c2ccc(-c3ncn(-c4ccc(OC(F)(F)F)cc4)n3)cc2)N1c1ccccc1OC(F)(F)F` (stereo not drawn) [Compound 168C], the mortality at 50 µg/cm2 was 50 to 100%.
Work on `COc1cc(C)c(-n2c(C)cs/c2=N\N=C\c2ccc(-c3ncn(-c4ccc(OC(F)(F)F)cc4)n3)cc2)c(C)c1` [Compound 172C] yielded a mortality at 50 µg/cm2 of 50 to 100%.
`Cc1ccccc1-n1c(C)cs/c1=N\N=C\c1ccc(-c2ncn(-c3ccc(OC(F)(F)F)cc3)n2)cc1` [Compound 173C] was tested, and the mortality at 50 µg/cm2 was 50 to 100%.
With `Cc1cccc(Cl)c1-n1c(C)cs/c1=N\N=C\c1ccc(-c2ncn(-c3ccc(OC(F)(F)F)cc3)n2)cc1` [Compound 174C] the mortality at 50 µg/cm2 was 50 to 100%.
Molecule `Cc1cccc(C)c1-n1c(C)cs/c1=N\N=C\c1ccc(-c2ncn(-c3ccc(OC(F)(F)F)cc3)n2)cc1` [Compound 175C] has a mortality at 50 µg/cm2 of 50 to 100%.
For `CC(C)c1ccccc1N1CCCS/C1=N\N=C\c1ccc(-c2ncn(-c3ccc(OC(F)(F)F)cc3)n2)cc1` [Compound 177C], the mortality at 50 µg/cm2 was 50 to 100%.
`CC(C)c1ccccc1N1CCCS/C1=N\N=C\c1ccc(-c2ncn(-c3ccc(C(F)(F)F)cc3)n2)cc1` [Compound 179C] gave a mortality at 50 µg/cm2 of 50 to 100%.
In the case of `CCc1cccc(C)c1N1CCCS/C1=N\N=C\c1ccc(-c2ncn(-c3ccc(OC(F)(F)F)cc3)n2)cc1` [Compound 180C], the mortality at 50 µg/cm2 is reported as 50 to 100%.
`COc1cc(C)c(N2CCCS/C2=N\N=C\c2ccc(-c3ncn(-c4ccc(OC(F)(F)F)cc4)n3)cc2)c(C)c1` [Compound 181C] showed a mortality at 50 µg/cm2 of 50 to 100%.
In the case of `Cc1cccc(C)c1N1CCCS/C1=N\N=C\c1ccc(-c2ncn(-c3ccc(OC(F)(F)F)cc3)n2)cc1` [Compound 182C], the mortality at 50 µg/cm2 is reported as 50 to 100%.
For `CCC(C)c1ccccc1N1CCCS/C1=N\N=C\c1ccc(-c2ncn(-c3ccc(OC(F)(F)F)cc3)n2)cc1` (stereo not drawn) [Compound 183C], the mortality at 50 µg/cm2 was 50 to 100%.
For `Cc1cc(C)c(N2CCCS/C2=N\N=C\c2ccc(-c3ncn(-c4ccc(OC(F)(F)F)cc4)n3)cc2)c(C)c1` [Compound 184C], the mortality at 50 µg/cm2 was 50 to 100%.
`CCc1ccccc1N1CCCS/C1=N\N=C\c1ccc(-c2ncn(-c3ccc(OC(F)(F)F)cc3)n2)cc1` [Compound 185C] showed a mortality at 50 µg/cm2 of 50 to 100%.
`FC(F)(F)Oc1ccc(-n2cnc(-c3ccc(/C=N/N=C4\SCCCN4c4ccccc4C4CC4)cc3)n2)cc1` [Compound 186C] gave a mortality at 50 µg/cm2 of 50 to 100%.
In the case of `FC(F)(F)Oc1ccc(-n2cnc(-c3ccc(/C=N/N=C4\SCCCN4c4c(Cl)cccc4Cl)cc3)n2)cc1` [Compound 187C], the mortality at 50 µg/cm2 is reported as 50 to 100%.

What follows are molecules tested on Green Peach Aphid (GPA) (Myzus persicae) (assay: Bioassay on green peach aphid (GPA), foliar spray on cabbage seedlings). Conditions: green peach aphid, 200 ppm, read-out: % Mortality GPA 200 ppm.
Format: in vivo
Summary of the method: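 Cabbage seedlings (2-3 true leaves), each infested a day earlier with 20-50 wingless adult and nymph GPA, were sprayed on both leaf sides to runoff, four pots per treatment. Corrected % control was calculated against solvent-check plants.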
In the case of `CC(C)Cc1ccccc1N1CCS/C1=N\N=C\c1ccc(-c2ncn(-c3ccc(OC(F)(F)F)cc3)n2)cc1` [Compound 150C], the mortality at 200 ppm is reported as 0%.
In the case of `CC(C)=Cc1ccccc1N1CCS/C1=N\N=C\c1ccc(-c2ncn(-c3ccc(OC(F)(F)F)cc3)n2)cc1` [Compound 151C], the mortality at 200 ppm is reported as 0 to 80%.
Molecule `Cc1ccccc1N1/C(=N/N=C/c2ccc(-c3ncn(-c4ccc(OC(F)(F)F)cc4)n3)cc2)SCC1C` (stereo not drawn) [Compound 154C] has a mortality at 200 ppm of 0 to 80%.
Molecule `CCc1cccc(C)c1N1/C(=N/N=C/c2ccc(-c3ncn(-c4ccc(OC(F)(F)F)cc4)n3)cc2)SCC1C` (stereo not drawn) [Compound 156C] has a mortality at 200 ppm of 0 to 80%.
For `CC1CS/C(=N\N=C\c2ccc(-c3ncn(-c4ccc(OC(F)(F)F)cc4)n3)cc2)N1c1c(Cl)cccc1Cl` (stereo not drawn) [Compound 157C], the mortality at 200 ppm was 0 to 80%.
Work on `Cc1cccc(Cl)c1N1/C(=N/N=C/c2ccc(-c3ncn(-c4ccc(OC(F)(F)F)cc4)n3)cc2)SCC1C` (stereo not drawn) [Compound 158C] yielded a mortality at 200 ppm of 0 to 80%.
For `CC1CS/C(=N\N=C\c2ccc(-c3ncn(-c4ccc(OC(F)(F)F)cc4)n3)cc2)N1c1ccccc1OC(F)(F)F` (stereo not drawn) [Compound 168C], the mortality at 200 ppm was 0%.
Molecule `COc1cc(C)c(-n2c(C)cs/c2=N\N=C\c2ccc(-c3ncn(-c4ccc(OC(F)(F)F)cc4)n3)cc2)c(C)c1` [Compound 172C] has a mortality at 200 ppm of 0%.
Work on `Cc1ccccc1-n1c(C)cs/c1=N\N=C\c1ccc(-c2ncn(-c3ccc(OC(F)(F)F)cc3)n2)cc1` [Compound 173C] yielded a mortality at 200 ppm of 0%.
`Cc1cccc(Cl)c1-n1c(C)cs/c1=N\N=C\c1ccc(-c2ncn(-c3ccc(OC(F)(F)F)cc3)n2)cc1` [Compound 174C] was tested, and the mortality at 200 ppm was 0 to 80%.
Work on `Cc1cccc(C)c1-n1c(C)cs/c1=N\N=C\c1ccc(-c2ncn(-c3ccc(OC(F)(F)F)cc3)n2)cc1` [Compound 175C] yielded a mortality at 200 ppm of 0%.
`CC(C)c1ccccc1N1CCCS/C1=N\N=C\c1ccc(-c2ncn(-c3ccc(OC(F)(F)F)cc3)n2)cc1` [Compound 177C] showed a mortality at 200 ppm of 0%.
`CC(C)c1ccccc1N1CCCS/C1=N\N=C\c1ccc(-c2ncn(-c3ccc(C(F)(F)F)cc3)n2)cc1` [Compound 179C] was tested, and the mortality at 200 ppm was 0%.
`CCc1cccc(C)c1N1CCCS/C1=N\N=C\c1ccc(-c2ncn(-c3ccc(OC(F)(F)F)cc3)n2)cc1` [Compound 180C] gave a mortality at 200 ppm of 0 to 80%.
For `COc1cc(C)c(N2CCCS/C2=N\N=C\c2ccc(-c3ncn(-c4ccc(OC(F)(F)F)cc4)n3)cc2)c(C)c1` [Compound 181C], the mortality at 200 ppm was 0 to 80%.
`Cc1cccc(C)c1N1CCCS/C1=N\N=C\c1ccc(-c2ncn(-c3ccc(OC(F)(F)F)cc3)n2)cc1` [Compound 182C] showed a mortality at 200 ppm of 0 to 80%.
In the case of `CCC(C)c1ccccc1N1CCCS/C1=N\N=C\c1ccc(-c2ncn(-c3ccc(OC(F)(F)F)cc3)n2)cc1` (stereo not drawn) [Compound 183C], the mortality at 200 ppm is reported as 0%.
For `Cc1cc(C)c(N2CCCS/C2=N\N=C\c2ccc(-c3ncn(-c4ccc(OC(F)(F)F)cc4)n3)cc2)c(C)c1` [Compound 184C], the mortality at 200 ppm was 0%.
`CCc1ccccc1N1CCCS/C1=N\N=C\c1ccc(-c2ncn(-c3ccc(OC(F)(F)F)cc3)n2)cc1` [Compound 185C] was tested, and the mortality at 200 ppm was 0%.
Work on `FC(F)(F)Oc1ccc(-n2cnc(-c3ccc(/C=N/N=C4\SCCCN4c4ccccc4C4CC4)cc3)n2)cc1` [Compound 186C] yielded a mortality at 200 ppm of 0 to 80%.
Molecule `FC(F)(F)Oc1ccc(-n2cnc(-c3ccc(/C=N/N=C4\SCCCN4c4c(Cl)cccc4Cl)cc3)n2)cc1` [Compound 187C] has a mortality at 200 ppm of 0%.

What follows are molecules tested on Corn Earworm (CEW) (Helicoverpa zea) (assay: Bioassay on corn earworm (CEW), 128-well diet tray assay). Conditions: Helicoverpa zea; corn earworm, 50 μg/cm^2; read-out: % Mortality CEW 50 μg/cm^2.
Format: in vivo
Summary of the method: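 Activity was scored as percent larval mortality per well, averaged across eight wells and reported on a rating scale. Diet trays (128-well) were kept at 25° C with 14:10 light-dark for five to seven days.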
`CC(C)Cc1ccccc1N1CCS/C1=N\N=C\c1ccc(-c2ncn(-c3ccc(OC(F)(F)F)cc3)n2)cc1` [Compound 150C] showed a mortality at 50 µg/cm2 of 50 to 100%.
`CC(C)=Cc1ccccc1N1CCS/C1=N\N=C\c1ccc(-c2ncn(-c3ccc(OC(F)(F)F)cc3)n2)cc1` [Compound 151C] showed a mortality at 50 µg/cm2 of 50 to 100%.
`Cc1ccccc1N1/C(=N/N=C/c2ccc(-c3ncn(-c4ccc(OC(F)(F)F)cc4)n3)cc2)SCC1C` (stereo not drawn) [Compound 154C] showed a mortality at 50 µg/cm2 of 50 to 100%.
For `CCc1cccc(C)c1N1/C(=N/N=C/c2ccc(-c3ncn(-c4ccc(OC(F)(F)F)cc4)n3)cc2)SCC1C` (stereo not drawn) [Compound 156C], the mortality at 50 µg/cm2 was 50 to 100%.
For `CC1CS/C(=N\N=C\c2ccc(-c3ncn(-c4ccc(OC(F)(F)F)cc4)n3)cc2)N1c1c(Cl)cccc1Cl` (stereo not drawn) [Compound 157C], the mortality at 50 µg/cm2 was 50 to 100%.
Molecule `Cc1cccc(Cl)c1N1/C(=N/N=C/c2ccc(-c3ncn(-c4ccc(OC(F)(F)F)cc4)n3)cc2)SCC1C` (stereo not drawn) [Compound 158C] has a mortality at 50 µg/cm2 of 50 to 100%.
Work on `CC1CS/C(=N\N=C\c2ccc(-c3ncn(-c4ccc(OC(F)(F)F)cc4)n3)cc2)N1c1ccccc1OC(F)(F)F` (stereo not drawn) [Compound 168C] yielded a mortality at 50 µg/cm2 of 50 to 100%.
`COc1cc(C)c(-n2c(C)cs/c2=N\N=C\c2ccc(-c3ncn(-c4ccc(OC(F)(F)F)cc4)n3)cc2)c(C)c1` [Compound 172C] was tested, and the mortality at 50 µg/cm2 was 50 to 100%.
For `Cc1ccccc1-n1c(C)cs/c1=N\N=C\c1ccc(-c2ncn(-c3ccc(OC(F)(F)F)cc3)n2)cc1` [Compound 173C], the mortality at 50 µg/cm2 was 50 to 100%.
`Cc1cccc(Cl)c1-n1c(C)cs/c1=N\N=C\c1ccc(-c2ncn(-c3ccc(OC(F)(F)F)cc3)n2)cc1` [Compound 174C] showed a mortality at 50 µg/cm2 of 50 to 100%.
For `Cc1cccc(C)c1-n1c(C)cs/c1=N\N=C\c1ccc(-c2ncn(-c3ccc(OC(F)(F)F)cc3)n2)cc1` [Compound 175C], the mortality at 50 µg/cm2 was 50 to 100%.
Work on `CC(C)c1ccccc1N1CCCS/C1=N\N=C\c1ccc(-c2ncn(-c3ccc(OC(F)(F)F)cc3)n2)cc1` [Compound 177C] yielded a mortality at 50 µg/cm2 of 50 to 100%.
`CC(C)c1ccccc1N1CCCS/C1=N\N=C\c1ccc(-c2ncn(-c3ccc(C(F)(F)F)cc3)n2)cc1` [Compound 179C] showed a mortality at 50 µg/cm2 of 50 to 100%.
`CCc1cccc(C)c1N1CCCS/C1=N\N=C\c1ccc(-c2ncn(-c3ccc(OC(F)(F)F)cc3)n2)cc1` [Compound 180C] was tested, and the mortality at 50 µg/cm2 was 50 to 100%.
For `COc1cc(C)c(N2CCCS/C2=N\N=C\c2ccc(-c3ncn(-c4ccc(OC(F)(F)F)cc4)n3)cc2)c(C)c1` [Compound 181C], the mortality at 50 µg/cm2 was 50 to 100%.
In the case of `Cc1cccc(C)c1N1CCCS/C1=N\N=C\c1ccc(-c2ncn(-c3ccc(OC(F)(F)F)cc3)n2)cc1` [Compound 182C], the mortality at 50 µg/cm2 is reported as 50 to 100%.
For `CCC(C)c1ccccc1N1CCCS/C1=N\N=C\c1ccc(-c2ncn(-c3ccc(OC(F)(F)F)cc3)n2)cc1` (stereo not drawn) [Compound 183C], the mortality at 50 µg/cm2 was 50 to 100%.
With `Cc1cc(C)c(N2CCCS/C2=N\N=C\c2ccc(-c3ncn(-c4ccc(OC(F)(F)F)cc4)n3)cc2)c(C)c1` [Compound 184C] the mortality at 50 µg/cm2 was 50 to 100%.
For `CCc1ccccc1N1CCCS/C1=N\N=C\c1ccc(-c2ncn(-c3ccc(OC(F)(F)F)cc3)n2)cc1` [Compound 185C], the mortality at 50 µg/cm2 was 50 to 100%.
`FC(F)(F)Oc1ccc(-n2cnc(-c3ccc(/C=N/N=C4\SCCCN4c4ccccc4C4CC4)cc3)n2)cc1` [Compound 186C] showed a mortality at 50 µg/cm2 of 50 to 100%.
`FC(F)(F)Oc1ccc(-n2cnc(-c3ccc(/C=N/N=C4\SCCCN4c4c(Cl)cccc4Cl)cc3)n2)cc1` [Compound 187C] showed a mortality at 50 µg/cm2 of 50 to 100%.
